Counter-ions that a name gives are not always drawn.
tested on: influx of neutrophils to the lung in LPS-challenged rats; test: Rat LPS neutrophilia model; format: in vivo; details: intratracheal compound 15 min-24 hours before LPS aerosol (100 ug/ml, 15 min), lavage 4 hours later, in at least one of the range of conditions tested
Description: Rat LPS Neutrophilia Model
The effect of compounds on the influx of neutrophils to the lung in LPS-challenged rats is evaluated as follows. The test compound is suspended in one of the following solutions: 0.5% tween 80/PBS, 0.5% tween 80/saline, 10% EtOH/saline (with pH adjusted to 2.0, or 8.0 with HCl, or unadjusted), Saline @ pH 2.0, 6.5 or 8.0, 0.5% Tragacanth, 1% DMSO/20% Encapsin/Saline, or acidified 5% Tragacanth. The suspension process may be aided by the use of a glass homogenizer. For intratracheal administration, the animals are anesthetized with inhaled isoflurane and placed in a supine position, the trachea is intubated with a steel gavage needle (1.5 inch, 22 gauge, small ball) or a Penn-Century Microsprayer Aerosolizer (model IA-1B) and 200 ul of dosing solution is delivered. The animals are visually monitored during the recovery process, which typically occurs within two minutes.
Rats treated with compound or vehicle (15 min-24 hours pretreatment) are exposed to an LPS aerosol (100 ug/ml) for 15 min. Four hours later the rats are euthanized with pentobarbital (100 mg/kg, i.p.) and the airways are lavaged with 5 washes of 5 ml of phosphate buffered saline. The harvested cells are stained (Diffquick) and counted to determine total and differential cell data. In a typical study, macrophages represent 40-70% of the total cells, and polymorphonuclear cells 30-60% of the total cells. Inhibition of neutrophil levels relative to no compound controls is calculated based on the differential counts.
The assay has varying conditions, such as concentration, pretreat time, form of the compound (crystalline, amorphous, salts, micronised), and a wet or dry application of the compound. The data is obtained as % inhibition using a particular concentration and pretreat time.

SMILES	inhibition of neutrophilia (neutrophil influx to the lung)
Cc1ccc(C(=O)NC(C)C)cc1-c1nc(N2CCC(N3CCC(C)CC3)CC2)nc2c1CNC(=O)N2c1c(F)cccc1F [Example 70, 3-[8-(2,6-difluorophenyl)-2-(4-methyl-1,4′-bipiperidin-1′-yl)-7-oxo-5,6,7,8-tetrahydropyrimido[4,5-d]pyrimidin-4-yl]-4-methyl-N-(1-methylethyl)benzamide]	statistically significant inhibition of neutrophilia
Cc1ccc(C(=O)NC(C)C)cc1-c1nc(N2CCC(N3CCN(C)CC3)CC2)nc2c1CNC(=O)N2c1c(F)cccc1F [Example 72, 3-{8-(2,6-difluorophenyl)-2-[4-(4-methyl-1-piperazinyl)-1-piperidinyl]-7-oxo-5,6,7,8-tetrahydropyrimido[4,5-d]pyrimidin-4-yl}-4-methyl-N-(1-methylethyl)benzamide]	statistically significant inhibition of neutrophilia
CN(C)CCNc1nc(-c2cccc(C(=O)Nc3ccccc3)c2)c2c(n1)N(c1c(F)cccc1F)C(=O)NC2 [Example 91, 3-(8-(2,6-difluorophenyl)-2-{[2-(dimethylamino)ethyl]amino}-7-oxo-5,6,7,8-tetrahydropyrimido[4,5-d]pyrimidin-4-yl)-N-phenylbenzamide]	statistically significant inhibition of neutrophilia
CN(C)CCNc1nc(-c2cccc(C(=O)Nc3nccs3)c2)c2c(n1)N(c1c(F)cccc1F)C(=O)NC2 [Example 92, 3-(8-(2,6-difluorophenyl)-2-{[2-(dimethylamino)ethyl]amino}-7-oxo-5,6,7,8-tetrahydropyrimido[4,5-d]pyrimidin-4-yl)-N-1,3-thiazol-2-ylbenzamide]	statistically significant inhibition of neutrophilia
CN(C)CCNc1nc(-c2cccc(C(=O)Nc3ccc(F)cc3)c2)c2c(n1)N(c1c(F)cccc1F)C(=O)NC2 [Example 93, 3-(8-(2,6-difluorophenyl)-2-{[2-(dimethylamino)ethyl]amino}-7-oxo-5,6,7,8-tetrahydropyrimido[4,5-d]pyrimidin-4-yl)-N-(4-fluorophenyl)benzamide]	statistically nonsignificant inhibition of neutrophilia
Cc1c(F)cc(C(=O)Nc2ccccc2)cc1-c1nc(NCCN(C)C)nc2c1CNC(=O)N2c1c(F)cccc1F [Example 112, 3-(8-(2,6-difluorophenyl)-2-{[2-(dimethylamino)ethyl]amino}-7-oxo-5,6,7,8-tetrahydropyrimido[4,5-d]pyrimidin-4-yl)-5-fluoro-4-methyl-N-phenylbenzamide]	statistically significant inhibition of neutrophilia
Cc1ccc(C(=O)Nc2nccs2)cc1-c1nc(NCCCN(C)C)nc2c1CNC(=O)N2c1c(F)cccc1F [Example 119, 3-(8-(2,6-difluorophenyl)-2-{[3-(dimethylamino)propyl]amino}-7-oxo-5,6,7,8-tetrahydropyrimido[4,5-d]pyrimidin-4-yl)-4-methyl-N-1,3-thiazol-2-ylbenzamide]	statistically significant inhibition of neutrophilia
CCN(CC)CCCNc1nc(-c2cc(C(=O)Nc3nccs3)ccc2C)c2c(n1)N(c1c(F)cccc1F)C(=O)NC2 [Example 120, 3-[2-{[3-(diethylamino)propyl]amino}-8-(2,6-difluorophenyl)-7-oxo-5,6,7,8-tetrahydropyrimido[4,5-d]pyrimidin-4-yl]-4-methyl-N-1,3-thiazol-2-ylbenzamide]	statistically significant inhibition of neutrophilia
Cc1ccc(C(=O)Nc2nccs2)cc1-c1nc(N(C)CCCN(C)C)nc2c1CNC(=O)N2c1c(F)cccc1F [Example 124, 3-{8-(2,6-difluorophenyl)-2-[[3-(dimethylamino)propyl](methyl)amino]-7-oxo-5,6,7,8-tetrahydropyrimido[4,5-d]pyrimidin-4-yl}-4-methyl-N-1,3-thiazol-2-ylbenzamide]	statistically nonsignificant inhibition of neutrophilia
CSc1ccc(NC(=O)c2ccc(C)c(-c3nc(NCCN(C)C)nc4c3CNC(=O)N4c3c(F)cccc3F)c2)cc1 [Example 127, 3-(8-(2,6-difluorophenyl)-2-{[2-(dimethylamino)ethyl]amino}-7-oxo-5,6,7,8-tetrahydropyrimido[4,5-d]pyrimidin-4-yl)-4-methyl-N-[4-(methylthio)phenyl]benzamide]	statistically significant inhibition of neutrophilia
Cc1ccc(C(=O)Nc2nccs2)cc1-c1nc(NC[C@H](C)O)nc2c1CNC(=O)N2c1c(F)cccc1F [Example 134, 3-(8-(2,6-difluorophenyl)-2-{[(2S)-2-hydroxypropyl]amino}-7-oxo-5,6,7,8-tetrahydropyrimido[4,5-d]pyrimidin-4-yl)-4-methyl-N-1,3-thiazol-2-ylbenzamide]	statistically nonsignificant inhibition of neutrophilia
Cc1ccc(C(=O)Nc2ccccc2)cc1-c1nc(NCCN(C)C)nc2c1CNC(=O)N2c1c(F)cccc1F [Example 137, 3-(8-(2,6-difluorophenyl)-2-{[2-(dimethylamino)ethyl]amino}-7-oxo-5,6,7,8-tetrahydropyrimido[4,5-d]pyrimidin-4-yl)-4-methyl-N-phenylbenzamide]	statistically significant inhibition of neutrophilia
Cc1ccc(C(=O)Nc2ccc(F)c(F)c2)cc1-c1nc(NCCN(C)C)nc2c1CNC(=O)N2c1c(F)cccc1F [Example 138, N-(3,4-difluorophenyl)-3-(8-(2,6-difluorophenyl)-2-{[2-(dimethylamino)-ethyl]amino}-7-oxo-5,6,7,8-tetrahydropyrimido[4,5-d]pyrimidin-4-yl)-4-methylbenzamide]	statistically significant inhibition of neutrophilia
COc1ccc(NC(=O)c2ccc(C)c(-c3nc(NCCN(C)C)nc4c3CNC(=O)N4c3c(F)cccc3F)c2)cn1 [Example 140, 3-(8-(2,6-difluorophenyl)-2-{[2-(dimethylamino)ethyl]amino}-7-oxo-5,6,7,8-tetrahydropyrimido[4,5-d]pyrimidin-4-yl)-4-methyl-N-[6-(methyloxy)-3-pyridinyl]benzamide]	statistically significant inhibition of neutrophilia
CCc1ccc(C(=O)Nc2nccs2)cc1-c1nc(NCCN(C)C)nc2c1CNC(=O)N2c1c(F)cccc1F [Example 144, 3-(8-(2,6-difluorophenyl)-2-{[2-(dimethylamino)ethyl]amino}-7-oxo-5,6,7,8-tetrahydropyrimido[4,5-d]pyrimidin-4-yl)-4-ethyl-N-1,3-thiazol-2-ylbenzamide trifluoroacetate]	statistically significant inhibition of neutrophilia
Cc1ccc(C(=O)NCc2ccccc2)cc1-c1nc(N2CCN(C)CC2)nc2c1CNC(=O)N2c1c(F)cccc1F [Example 148, 3-[8-(2,6-difluorophenyl)-2-(4-methyl-1-piperazinyl)-7-oxo-5,6,7,8-tetrahydropyrimido[4,5-d]pyrimidin-4-yl]-4-methyl-N-(phenylmethyl)benzamide]	statistically nonsignificant inhibition of neutrophilia
Cc1ccc(C(=O)NCc2ccccc2)cc1-c1nc(NCCCN(C)C)nc2c1CNC(=O)N2c1c(F)cccc1F [Example 151, 3-(8-(2,6-difluorophenyl)-2-{[3-(dimethylamino)propyl]amino}-7-oxo-5,6,7,8-tetrahydropyrimido[4,5-d]pyrimidin-4-yl)-4-methyl-N-(phenylmethyl)benzamide]	statistically nonsignificant inhibition of neutrophilia
CNC(=O)c1ccc(C)c(-c2nc(NCCCN(C)C)nc3c2CNC(=O)N3c2c(F)cccc2F)c1 [Example 166, 3-(8-(2,6-difluorophenyl)-2-{[3-(dimethylamino)propyl]amino}-7-oxo-5,6,7,8-tetrahydropyrimido[4,5-d]pyrimidin-4-yl)-N,4-dimethylbenzamide]	statistically nonsignificant inhibition of neutrophilia
CCN(CC)CCCNc1nc(-c2cc(C(=O)NC)ccc2C)c2c(n1)N(c1c(F)cccc1F)C(=O)NC2 [Example 172, 3-[2-{[3-(diethylamino)propyl]amino}-8-(2,6-difluorophenyl)-7-oxo-5,6,7,8-tetrahydropyrimido[4,5-d]pyrimidin-4-yl]-N,4-dimethylbenzamide]	statistically nonsignificant inhibition of neutrophilia
CNC(=O)c1ccc(C)c(-c2nc(N(C)CCCN(C)C)nc3c2CNC(=O)N3c2c(F)cccc2F)c1 [Example 174, 3-{8-(2,6-difluorophenyl)-2-[[3-(dimethylamino)propyl](methyl)amino]-7-oxo-5,6,7,8-tetrahydropyrimido[4,5-d]pyrimidin-4-yl}-N,4-dimethylbenzamide]	inactive

Reference: patent publication US7674789B2, “Compounds” (Glaxo Group Limited, priority 2005, dated 2010)
